Results published in patent publication US20110184004A1, “PREDICTIVE MARKER FOR EGFR INHIBITOR TREATMENT” (priority 2007, published 2011).
Entries after “also recorded” stand apart in the source; their conditions may differ.

Columns and labels:
NSCLC [1] = conditions: second line therapy of NSCLC; cited from earlier work
NSCLC [2] = conditions: cited from earlier work
[3] = patients with cancer, 150 mg/day dose; 500 ng/ml is the average plasma concentration targeted for clinical efficacy; cited from earlier work
epithelial tumours = conditions: cited from earlier work
NSCLC [4] = conditions: NSCLC patients for whom standard therapy for advanced disease has failed; single agent versus placebo; 150 mg/day; cited from earlier work
advanced NSCLC = experiment: Open-label Phase II predictive marker study of Tarceva monotherapy, response by RECIST; type: in vivo, human; conditions: 102 analysed patients, oral 150 mg/day
Experimental: Clinical benefit was defined as either having an objective response, or disease stabilization for ≧12 weeks.
Based on the experience from the BR.21 study, benefiting population was defined as either having objective response, or disease stabilization for 12 weeks. Clinical and microarray datasets were analyzed according to a pre-defined statistical plan.
Overview of Study Design and Dosing Regimen This was an open-label, predictive marker identification Phase II study. The study was conducted in approximately 26 sites in about 12 countries. 264 patients with advanced NSCLC following failure of at least one prior chemotherapy regimen were enrolled over a 12 month period. […] Dose reductions were permitted based on tolerability to drug therapy. Clinical and laboratory parameters were assessed to evaluate disease control and toxicity. Treatment continued until disease progression, unacceptable toxicity or death. The study design is depicted in FIG. 1.
The RECIST (Uni-dimensional Tumour Measurement) criteria were used to evaluate response. These criteria can be found under the following link: http://www.eortc.be/recist/
Note that: To be assigned a status of CR or PR, changes in tumour measurements must be confirmed by repeated assessments at least 4 weeks apart at any time during the treatment period.
In the case of SD, follow-up measurements must have met the SD criteria at least once after study entry at a minimum interval of 6 weeks.
In the case of maintained SD, follow-up measurements must have met the SD criteria at least once after study entry with maintenance duration of at least 12 weeks.
Based on these parameters, data from 20 arrays were excluded from analysis. Thus data from a total of 102 arrays representing 102 patients was included in the analysis.

[5] = advanced NSCLC after failure of at least one chemotherapy, RECIST
[6] = clinical benefit = objective response or disease stabilization for ≧12 weeks

Question: With `Nc1nc2[nH]cc(CCc3ccc(C(=O)N[C@@H](CCC(=O)O)C(=O)O)cc3)c2c(=O)[nH]1` [pemetrexed] as the compound, how does the “Efficacy compared with docetaxel” value (NSCLC [1]) read?
Answer: Its value is “clinically equivalent efficacy”.

Question: And the “Side effects compared with docetaxel” value (NSCLC [1])?
Answer: Its value is “significantly fewer side effects”.

Question: What does the source list for `CC(=O)O[C@@]12CO[C@@H]1C[C@H](O)[C@@]1(C)C(=O)[C@H](O)C3=C(C)[C@@H](OC(=O)[C@H](O)[C@@H](NC(=O)OC(C)(C)C)c4ccccc4)C[C@@](O)([C@@H](OC(=O)c4ccccc4)[C@H]21)C3(C)C` [docetaxel]?
Answer: Survival, second line (NSCLC [2]; NSCLC after failure of cisplatin-based first-line regimens, all ages, ECOG performance status 0, 1 or 2, versus best supportive care): improved survival; Survival, third-line treatment or beyond (NSCLC [2]; patients receiving docetaxel as third-line treatment or beyond): no prolongation of survival

Question: Which “Drug levels in plasma” value [3] does the source give for `C#Cc1cccc(Nc2ncnc3cc(OCCOC)c(OCCOC)cc23)c1` [Tarceva, erlotinib] here?
Answer: Its value is greater than 500 ng/mL.

Question: What about the Safety and tolerability (epithelial tumours; early clinical data, doses that provide the targeted effective concentration) of the same compound?
Answer: The Safety and tolerability was “safe and generally well tolerated”.

Question: And the “Clinical activity (remissions)” value (epithelial tumours; previously treated patients with head and neck cancer and NSCLC)?
Answer: The value was “capable of inducing durable partial remissions”.

Question: What about the Survival (NSCLC [4]) of the same compound?
Answer: The Survival was “significantly prolongs and improves the survival; also recorded: survival benefit”.

Question: And the “Best Response PD” value (advanced NSCLC; [5])?
Answer: The value was 49 (48.0%) n (%).

Question: What about the “Best Response PR” value (advanced NSCLC; [5]) of the same compound?
Answer: The value was 6 (5.9%) n (%).

Question: And the “Best Response SD” value (advanced NSCLC; [5])?
Answer: Its value is 31 (30.4%) n (%).

Question: And the “Clinical Benefit NO” value (advanced NSCLC; [6])?
Answer: Its value is 81 (79.4%) n (%).

Question: And the “Clinical Benefit YES” value (advanced NSCLC; [6])?
Answer: The value was 21 (20.6%) n (%).
